Results: patent US20250082624A1, “METHODS OF TREATING COGNITIVE IMPAIRMENT” (NeuroTherapia, Inc., priority 2023, published 2025)

Test: Two-compartment PK model of NTRX-07 plasma data (fit and dose predictions)
Design: species or system human
Conditions: compartmental PK model; for AUC24 h accumulation / Cmax accumulation: over 7 days
Method: Predictive compartmental PK analysis was utilized during dose escalation to predict PK outcomes at higher dose levels based on data from lower ones.
FIGS. 22A and 22B show the mathematical model with a simultaneous fit to data from all four cohorts (excluding fed subject data).
Compartmental analysis was performed using a two-compartment model with extravascular administration. Modeling was performed using a sophisticated MS Excel workbook developed by PharmaDirections.
FIGS. 24A-B show the mathematical model (heavy blue line) fit to the Cohort A data. The model will be further refined as data from additional cohorts become available. In particular, the terminal slope may change some, as the current data set is inadequate to define it. The model was built based on geometric mean data, but timepoint data were not used in cases where plasma concentrations were below the limit of quantitation for four or more of the six subjects.
Note that the model estimates are somewhat higher than those obtained from non-compartmental analysis since they consider the entire dosing interval as opposed to only the time points for which data are available.
These predictions are based on an assumption of linear PK across the specified dose range, and parameters could be underestimated if a saturable process limits bioavailability or is involved in drug clearance. Current data are insufficient to determine whether any saturable processes are involved in NTRX-007 uptake or clearance.
Compartmental analysis was performed based on a two-compartment model with extravascular administration. Modeling was performed using a sophisticated MS Excel workbook developed by PharmaDirections. Geometric mean data from Cohorts A and B were used to determine weighted least squares best fits for the PK parameters.
FIGS. 26A-26B show the mathematical model (heavy blue line) fit to the Cohort B data. The model was built based on geometric mean data, but timepoint data were not used in cases where plasma concentrations were below the limit of quantitation for four or more of the seven subjects.
Compartmental analysis was performed based on a two-compartment model with extravascular administration. Modeling was performed using a sophisticated MS Excel workbook developed by PharmaDirections. Geometric mean data from Cohorts A, B, and C were used to determine weighted least squares best fits for the PK parameters.
The model predicts somewhat higher exposure for b.i.d. dosing.
Compartmental analysis was performed based on a two-compartment model with extravascular administration. Modeling was performed using a sophisticated MS Excel workbook developed by PharmaDirections. Geometric mean data from Cohorts A, B, C, and D were used to determine weighted least squares best fits for the PK parameters.

CC1(Cc2ccccc2)COc2cc(C(=O)N3CCCCC3)ccc21 (stereo not shown) [NTRX-07, 3-benzyl-3-methyl-2,3-dihydrobenzofuran-6-carboxylic acid-piperidine amide]
AUC24 h (40 mg SDD QD, Day 1): 96 ng·h/mL
Cmax (40 mg SDD QD, Day 1): 43.9 ng/mL
Cmin (40 mg SDD QD, Day 1): 0.0 ng/mL
Tmax (40 mg SDD QD, Day 1): 4.8 min
AUC24 h (40 mg SDD QD, Day 2): 100 ng·h/mL
Cmax (40 mg SDD QD, Day 2): 44.3 ng/mL
Cmin (40 mg SDD QD, Day 2): 0.4 ng/mL
Tmax (40 mg SDD QD, Day 2): 4.8 min
AUC24 h (40 mg SDD QD, Day 3): 101 ng·h/mL
Cmax (40 mg SDD QD, Day 3): 44.4 ng/mL
Cmin (40 mg SDD QD, Day 3): 0.5 ng/mL
Tmax (40 mg SDD QD, Day 3): 4.8 min
AUC24 h (40 mg SDD QD, Day 4): 101 ng·h/mL
Cmax (40 mg SDD QD, Day 4): 44.4 ng/mL
Cmin (40 mg SDD QD, Day 4): 0.5 ng/mL
Tmax (40 mg SDD QD, Day 4): 4.8 min
AUC24 h (40 mg SDD QD, Day 5): 101 ng·h/mL
Cmax (40 mg SDD QD, Day 5): 44.4 ng/mL
Cmin (40 mg SDD QD, Day 5): 0.5 ng/mL
Tmax (40 mg SDD QD, Day 5): 4.8 min
AUC24 h (40 mg SDD QD, Day 6): 101 ng·h/mL
Cmax (40 mg SDD QD, Day 6): 44.4 ng/mL
Cmin (40 mg SDD QD, Day 6): 0.5 ng/mL
Tmax (40 mg SDD QD, Day 6): 4.8 min
AUC24 h (40 mg SDD QD, Day 7): 101 ng·h/mL
Cmax (40 mg SDD QD, Day 7): 44.4 ng/mL
Cmin (40 mg SDD QD, Day 7): 0.5 ng/mL
Tmax (40 mg SDD QD, Day 7): 4.8 min
AUC24 h accumulation (40 mg SDD QD): 104%
Cmax accumulation (40 mg SDD QD): 101%
AUC24 h (120 mg SDD QD, Day 1): 210 ng·h/mL
Cmax (120 mg SDD QD, Day 1): 74.6 ng/mL
Tmax (120 mg SDD QD, Day 1): 37.8 min
AUC24 h (120 mg SDD QD, Day 2): 227 ng·h/mL
Cmax (120 mg SDD QD, Day 2): 76.1 ng/mL
Cmin (120 mg SDD QD, Day 2): 1.5 ng/mL
Tmax (120 mg SDD QD, Day 2): 37.8 min
AUC24 h (120 mg SDD QD, Day 3): 230 ng·h/mL
Cmax (120 mg SDD QD, Day 3): 76.3 ng/mL
Cmin (120 mg SDD QD, Day 3): 1.8 ng/mL
Tmax (120 mg SDD QD, Day 3): 37.8 min
AUC24 h (120 mg SDD QD, Day 4): 231 ng·h/mL
Cmax (120 mg SDD QD, Day 4): 76.4 ng/mL
Cmin (120 mg SDD QD, Day 4): 1.8 ng/mL
Tmax (120 mg SDD QD, Day 4): 37.8 min
AUC24 h (120 mg SDD QD, Day 5): 231 ng·h/mL
Cmax (120 mg SDD QD, Day 5): 76.4 ng/mL
Cmin (120 mg SDD QD, Day 5): 1.8 ng/mL
Tmax (120 mg SDD QD, Day 5): 37.8 min
AUC24 h (120 mg SDD QD, Day 6): 231 ng·h/mL
Cmax (120 mg SDD QD, Day 6): 76.4 ng/mL
Cmin (120 mg SDD QD, Day 6): 1.8 ng/mL
Tmax (120 mg SDD QD, Day 6): 37.8 min
AUC24 h (120 mg SDD QD, Day 7): 231 ng·h/mL
Cmax (120 mg SDD QD, Day 7): 76.4 ng/mL
Cmin (120 mg SDD QD, Day 7): 1.8 ng/mL
Tmax (120 mg SDD QD, Day 7): 37.8 min
AUC24 h accumulation (120 mg SDD QD): 110%
Cmax accumulation (120 mg SDD QD): 102%
AUC24 h (360 mg SDD QD, Day 1): 559 ng·h/mL
Cmax (360 mg SDD QD, Day 1): 162.0 ng/mL
Tmax (360 mg SDD QD, Day 1): 47.4 min
AUC24 h (360 mg SDD QD, Day 2): 616 ng·h/mL
Cmax (360 mg SDD QD, Day 2): 166.4 ng/mL
Cmin (360 mg SDD QD, Day 2): 4.7 ng/mL
Tmax (360 mg SDD QD, Day 2): 47.4 min
AUC24 h (360 mg SDD QD, Day 3): 628 ng·h/mL
Cmax (360 mg SDD QD, Day 3): 167.4 ng/mL
Cmin (360 mg SDD QD, Day 3): 5.4 ng/mL
Tmax (360 mg SDD QD, Day 3): 47.4 min
AUC24 h (360 mg SDD QD, Day 4): 631 ng·h/mL
Cmax (360 mg SDD QD, Day 4): 167.6 ng/mL
Cmin (360 mg SDD QD, Day 4): 5.7 ng/mL
Tmax (360 mg SDD QD, Day 4): 47.4 min
AUC24 h (360 mg SDD QD, Day 5): 631 ng·h/mL
Cmax (360 mg SDD QD, Day 5): 167.6 ng/mL
Cmin (360 mg SDD QD, Day 5): 5.7 ng/mL
Tmax (360 mg SDD QD, Day 5): 47.4 min
AUC24 h (360 mg SDD QD, Day 6): 631 ng·h/mL
Cmax (360 mg SDD QD, Day 6): 167.6 ng/mL
Cmin (360 mg SDD QD, Day 6): 5.7 ng/mL
Tmax (360 mg SDD QD, Day 6): 47.4 min
AUC24 h (360 mg SDD QD, Day 7): 631 ng·h/mL
Cmax (360 mg SDD QD, Day 7): 167.6 ng/mL
Cmin (360 mg SDD QD, Day 7): 5.7 ng/mL
Tmax (360 mg SDD QD, Day 7): 47.4 min
AUC24 h accumulation (360 mg SDD QD): 113%
Cmax accumulation (360 mg SDD QD): 103%
